These results are taken from patent US9487516B2, “Antibacterial oxadiazolone derivatives” (priority 2013, dated 2016).

In general, MIC refers to the smallest concentration in the dilution series that meets the test's criterion for growth inhibition.

Experiment in all cases: Bacterial growth minimal inhibitory concentration (microdilution, cation-adjusted Mueller-Hinton Broth)
Type in all cases: cell-based

The test system of assay [1] is Acinetobacter baumanii T6474. The following applies: Acinetobacter baumannii, multiply-resistant strain (in particular quinolone-resistant). The gist of the method:
(§1)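 MICs (mg/L) were found by CLSI M7-A7 broth microdilution in cation-adjusted Mueller-Hinton broth. S. aureus A798 and E. faecium A949 are multiply resistant (quinolone-resistant) strains. M. catarrhalis A894 is quinolone-sensitive, and S. aureus ATCC29213 is methicillin- and quinolone-sensitive.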

The subject of assay [2] is Enterococcus faecium A949. The following applies: multiply-resistant strain (in particular quinolone-resistant), read-out: MIC for E. faecium A949. The gist of the method:
as §1

In assay [3] the test system is Moraxella catarrhalis A894. The following applies: quinolone-sensitive strain. Put shortly: as §1
Assay [4] deals with Staphylococcus aureus A798. The following applies: multiply-resistant strain (in particular quinolone-resistant), read-out: MIC for S. aureus A798. Put shortly:
as §1

The test system of assay [5] is Staphylococcus aureus ATCC29213. The following applies: methicillin-sensitive and quinolone-sensitive strain, read-out: MIC for S. aureus ATCC29213. The gist of the method:
as §1

In brackets after ≈: the same amount, converted by molar mass.

Regarding `N#Cc1ccc2ccc(=O)n3c2c1[C@H](NCCCc1nn(-c2ccc4c(n2)NC(=O)CO4)c(=O)o1)C3` [Example 41, (S)-4-oxo-1-{3-[5-oxo-4-(3-oxo-3,4-dihydro-2H-pyrido[3,2-b][1,4]oxazin-6-yl)-4,5-dihydro-[1,3,4]oxadiazol-2-yl]-propylamino}-1,2-dihydro-4H-pyrrolo[3,2,1-ij]quinoline-9-carbonitrile], the minimal inhibitory concentration (MIC) in assay [1] worked out at 0.125 µg/mL (≈ 0.257 µM); in assay [2], 0.5 µg/mL (≈ 1.03 µM); in assay [3], 0.063 µg/mL (≈ 0.13 µM); in assay [4], 0.125 µg/mL (≈ 0.257 µM); in assay [5] it was 0.063 µg/mL (≈ 0.13 µM).
